The record followed here is patent publication US9617283B2, “Bicyclic heterocycle compounds and their uses in therapy” (ASTEX THERAPEUTICS LIMITED, priority 2012, dated 2017).

The target of experiment [1] is T1, BIR3 domain of human XIAP (residues 252-350) (Homo sapiens, UniProt P98170).
T1 construct: BIR3 domain of human XIAP (residues 252-350); His-tag (cleaved yes); made in house; host or cells: Escherichia coli
Description: XIAP in vitro competitive displacement binding assay (fluorescence polarization). Particulars: 1 h, percent inhibition (PI) at 0.04 μM; read-out: Xiap IC50 or PI μM. For orientation: In fluorescence polarisation assays a small probe gives low polarisation when free and higher when bound to something large.

Experiment [2] deals with EVSA-T (human breast carcinoma). Kind of experiment: Anti-proliferative activity, Alamar Blue assay, EVSA-T. Type of experiment: cell-based.
Description: Anti-Proliferative Activity
The method is based on the ability of viable cells to reduce resazurin to its fluorescent product resorufin. For each proliferation assay cells are plated onto 96 well plates and allowed to recover for 16 hours prior to the addition of inhibitor compounds (in 0.1% DMSO v/v) for a further 72 hours. […] The anti-proliferative activities of compounds of the invention can be determined by measuring the ability of the compounds to inhibit growth in 3 cancer cell lines: • EVSA-T (human breast carcinoma) DSMZ cat. no.
Setting [3] is: Homo sapiens, EVSA-T, 72 h, EVSA-T cell line, 72 hours, Alamar Blue; read-out: EVSA-T prolif.
[4] abbreviates: Homo sapiens, EVSA-T; read-out: EC50 in EVSA-T cell line assays.

Where a name gives a salt, the structure may show the parent alone. Read-outs that look alike come from different tables or passages of the source. A value given as a limit tells only on which side of the number the result lay.

T1 sequence (P98170 252-350): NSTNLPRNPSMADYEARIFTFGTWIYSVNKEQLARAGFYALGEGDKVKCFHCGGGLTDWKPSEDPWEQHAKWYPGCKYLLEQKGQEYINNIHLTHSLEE

Consider `C[C@H]1CC(=O)N(C[C@H]2CN[C@H](C)CN2CC(=O)N2CC(C)(C)c3cnc(Cc4ccc(F)cc4F)cc32)C1` [Example 74, (4S)-1-{[(2R,5R)-1-(2-{6-[(2,4-Difluorophenyl)methyl]-3,3-dimethyl-1H,2H,3H-pyrrolo[3,2-c]pyridin-1-yl}-2-oxoethyl)-5-methylpiperazin-2-yl]methyl}-4-methylpyrrolidin-2-one dihydrochloride], for which, in experiment [1], the inhibition at 0.04 µM stood at 71%. Besides, the EC50 was 1.8 nM in experiment [2] (setting [3]) and under 1000 nM in experiment [2] (setting [4]).
Taken in the same sequence, the figures for `C[C@@H]1CN(CC(=O)N2CC(C)(C)c3cnc(Cc4ccc(F)cc4F)cc32)[C@@H](CN2C[C@@H](C)OCC2=O)CN1` [Example 69, (6R)-4-{[(2R,5R)-1-(2-{6-[(2,4-Difluorophenyl)methyl]-3,3-dimethyl-1H,2H,3H-pyrrolo[3,2-c]pyridin-1-yl}-2-oxoethyl)-5-methylpiperazin-2-yl]methyl}-6-methylmorpholin-3-one dihydrochloride] were 68%, 2.6 nM and under 1000 nM.
For the compound `C[C@@H]1CC(=O)N(C[C@H]2CN[C@H](C)CN2CC(=O)N2CC(C)(C)c3ncc(Cc4ccc(F)cc4F)cc32)C1` [Example 70, (4R)-1-{[(2R,5R)-1-(2-{6-[(2,4-Difluorophenyl)methyl]-3,3-dimethyl-1H,2H,3H-pyrrolo[3,2-b]pyridin-1-yl}-2-oxoethyl)-5-methylpiperazin-2-yl]methyl}-4-methylpyrrolidin-2-one dihydrochloride], in experiment [1], the inhibition at 0.04 µM turned out to be 55%. The values for the EC50 in experiment [2] (setting [3]) and in experiment [2] (setting [4]) were 3.2 nM and under 1000 nM, respectively.
Turning to `C[C@@H]1CN(CC(=O)N2CC(C)(C)c3ncc(Cc4ccc(F)cc4F)cc32)[C@@H](CN2Cc3cc(C#N)ccc3C2=O)CN1` [Example 106, 2-{[(2R,5R)-1-(2-{6-[(2,4-Difluorophenyl)methyl]-3,3-dimethyl-1H,2H,3H-pyrrolo[3,2-b]pyridin-1-yl}-2-oxoethyl)-5-methylpiperazin-2-yl]methyl}-1-oxo-2,3-dihydro-1H-isoindole-5-carbonitrile dihydrochloride], in experiment [1], the inhibition at 0.04 µM amounted to 90%. Moreover, the EC50 is 2.1 nM in experiment [2] (setting [3]) and under 1000 nM in experiment [2] (setting [4]).
For the compound `CC1=C(C)C(=O)N(C[C@H]2CN[C@H](C)CN2CC(=O)N2CC(C)(C)c3cnc(Cc4ccc(F)cc4)cc32)C1` [Example 36, 1-{[(2R,5R)-1-(2-{6-[(4-Fluorophenyl)methyl]-3,3-dimethyl-1H,2H,3H-pyrrolo[3,2-c]pyridin-1-yl}-2-oxoethyl)-5-methylpiperazin-2-yl]methyl}-3,4-dimethyl-2,5-dihydro-1H-pyrrol-2-one dihydrochloride], the inhibition at 0.04 µM in experiment [1] worked out at 74%. The EC50 in experiment [2] (setting [3]) is 1.7 nM; in experiment [2] (setting [4]), under 1000 nM.
In the case of `C[C@@H]1CN(CC(=O)N2CC(C)(C)c3ncc(Cc4ccc(F)cc4)cc32)[C@@H](CN2CC(C)(C)CC2=O)CN1` [Example 1, 1-{[(2R,5R)-1-(2-{6-[(4-Fluorophenyl)methyl]-3,3-dimethyl-1H,2H,3H-pyrrolo[3,2-b]pyridin-1-yl}-2-oxoethyl)-5-methylpiperazin-2-yl]methyl}-4,4-dimethylpyrrolidin-2-one dihydrochloride], the inhibition at 0.04 µM in experiment [1] was 54%. The EC50 is 2.2 nM in experiment [2] (setting [3]) and under 1000 nM in experiment [2] (setting [4]).
The matching figures for `C[C@@H]1CN(CC(=O)N2CC(C)(C)c3ncc(Cc4ccc(F)cc4)cc32)[C@@H](CN2CCC(C)(C)C2=O)CN1` [Example 4, 1-{[(2R,5R)-1-(2-{6-[(4-Fluorophenyl)methyl]-3,3-dimethyl-1H,2H,3H-pyrrolo[3,2-b]pyridin-1-yl}-2-oxoethyl)-5-methylpiperazin-2-yl]methyl}-3,3-dimethylpyrrolidin-2-one dihydrochloride]: 34%, 3 nM and under 1000 nM.
Take `C[C@@H]1CN(CC(=O)N2CC(C)(C)c3ncc(Cc4ccc(F)cc4F)cc32)[C@@H](CN2Cc3ccc(O)cc3C2=O)CN1` [Example 116, 2-{[(2R,5R)-1-(2-{6-[(2,4-Difluorophenyl)methyl]-3,3-dimethyl-1H,2H,3H-pyrrolo[3,2-b]pyridin-1-yl}-2-oxoethyl)-5-methylpiperazin-2-yl]methyl}-6-hydroxy-2,3-dihydro-1H-isoindol-1-one dihydrochloride]: the inhibition at 0.04 µM in experiment [1] amounted to 79%.
Take `CCCC(F)(F)c1cc2c(cn1)C(C)(C)CN2C(=O)CN1C[C@@H](C)NC[C@@H]1CN1C[C@@H](C)CC1=O` [Example 75, (4S)-1-{[(2R,5R)-1-{2-[6-(1,1-Difluorobutyl)-3,3-dimethyl-1H,2H,3H-pyrrolo[3,2-c]pyridin-1-yl]-2-oxoethyl}-5-methylpiperazin-2-yl]methyl}-4-methylpyrrolidin-2-one dihydrochloride]: the inhibition at 0.04 µM in experiment [1] is 75%. Besides, the EC50 in experiment [2] (setting [3]) is 14 nM; in experiment [2] (setting [4]), under 1000 nM.
As to `C[C@@H]1CN(CC(=O)N2CC(C)(C)c3nnc(Cc4ccc(F)cc4F)cc32)[C@@H](CN2Cc3c(O)cccc3C2=O)CN1` [Example 117, 2-{[(2R,5R)-1-(2-{3-[(2,4-Difluorophenyl)methyl]-7,7-dimethyl-5H,6H,7H-pyrrolo[3,2-c]pyridazin-5-yl}-2-oxoethyl)-5-methylpiperazin-2-yl]methyl}-4-hydroxy-2,3-dihydro-1H-isoindol-1-one dihydrochloride], the inhibition at 0.04 µM in experiment [1] turned out to be 78%.
As to `C[C@@H]1CN(CC(=O)N2CC(C)(C)c3cnc(Cc4ccc(F)cc4F)cc32)[C@@H](CN2C[C@H](C)N(C)CC2=O)CN1` [Example 81, (5S)-1-{[(2R,5R)-1-(2-{6-[(2,4-Difluorophenyl)methyl]-3,3-dimethyl-1H,2H,3H-pyrrolo[3,2-c]pyridin-1-yl}-2-oxoethyl)-5-methylpiperazin-2-yl]methyl}-4,5-dimethylpiperazin-2-one dihydrochloride], in experiment [1], the inhibition at 0.04 µM is 52%. Moreover, the values for the EC50 in experiment [2] (setting [3]) and in experiment [2] (setting [4]) were 2.8 nM and under 1000 nM, respectively.
Take `C[C@@H]1CN(CC(=O)N2CC(C)(C)c3nnc(Cc4ccc(F)cc4F)cc32)[C@@H](CN2Cc3ccc(O)cc3C2=O)CN1` [Example 115, 2-{[(2R,5R)-1-(2-{3-[(2,4-Difluorophenyl)methyl]-7,7-dimethyl-5H,6H,7H-pyrrolo[3,2-c]pyridazin-5-yl}-2-oxoethyl)-5-methylpiperazin-2-yl]methyl}-6-hydroxy-2,3-dihydro-1H-isoindol-1-one dihydrochloride]: the inhibition at 0.04 µM in experiment [1] was 78%.
Turning to `COC[C@@H]1CN(C[C@H]2CN[C@H](C)CN2CC(=O)N2CC(C)(C)c3ncc(Cc4ccc(F)cc4)cc32)C(=O)CO1` [Example 102, (6S)-4-{[(2R,5R)-1-(2-{6-[(4-Fluorophenyl)methyl]-3,3-dimethyl-1H,2H,3H-pyrrolo[3,2-b]pyridin-1-yl}-2-oxoethyl)-5-methylpiperazin-2-yl]methyl}-6-(methoxymethyl)morpholin-3-one dihydrochloride], the inhibition at 0.04 µM in experiment [1] worked out at 51%. Also, the EC50 was 6.9 nM in experiment [2] (setting [3]) and under 1000 nM in experiment [2] (Homo sapiens, EVSA-T, read-out: EC50 in EVSA-T cell line assays).
Turning to `C[C@@H]1CN(CC(=O)N2CC(C)(C)c3ncc(Cc4ccc(F)cc4F)cc32)[C@@H](CN2C[C@H](C)N(C)CC2=O)CN1` [Example 98, (5S)-1-{[(2R,5R)-1-(2-{6-[(2,4-Difluorophenyl)methyl]-3,3-dimethyl-1H,2H,3H-pyrrolo[3,2-b]pyridin-1-yl}-2-oxoethyl)-5-methylpiperazin-2-yl]methyl}-4,5-dimethylpiperazin-2-one dihydrochloride], in experiment [1], the inhibition at 0.04 µM came out at 39%. Moreover, the EC50 is 3.5 nM in experiment [2] (setting [3]) and under 1000 nM in experiment [2] (setting [4]).
For the compound `CC1=C(C)C(=O)N(C[C@H]2CN[C@H](C)CN2CC(=O)N2CC(C)(C)c3nnc(Cc4ccc(F)cc4)cc32)C1` [Example 51, 1-{[(2R,5R)-1-(2-{3-[(4-Fluorophenyl)methyl]-7,7-dimethyl-5H,6H,7H-pyrrolo[3,2-c]pyridazin-5-yl}-2-oxoethyl)-5-methylpiperazin-2-yl]methyl}-3,4-dimethyl-2,5-dihydro-1H-pyrrol-2-one L-lactate], in experiment [1], the inhibition at 0.04 µM turned out to be 48%. Besides, the EC50 in experiment [2] (setting [3]) is 4.9 nM; in experiment [2] (setting [4]), under 1000 nM.
Taken in the same sequence, the figures for `CC1=C(C)C(=O)N(C[C@H]2CN[C@H](C)CN2CC(=O)N2CC(C)(C)c3ncc(Cc4ccc(F)cc4F)cc32)C1` [Example 24, 1-{[(2R,5R)-1-(2-{6-[(2,4-Difluorophenyl)methyl]-3,3-dimethyl-1H,2H,3H-pyrrolo[3,2-b]pyridin-1-yl}-2-oxoethyl)-5-methylpiperazin-2-yl]methyl}-3,4-dimethyl-2,5-dihydro-1H-pyrrol-2-one, dihydrochloride] were 72%, 1.7 nM and under 1000 nM.
Taken in the same sequence, the figures for `C[C@@H]1CN(CC(=O)N2CC(C)(C)c3ncc(Cc4ccc(F)cc4)cc32)[C@@H](CN2Cc3ccncc3C2=O)CN1` [Example 19, 2-{[(2R,5R)-1-(2-{6-[(4-Fluorophenyl)methyl]-3,3-dimethyl-1H,2H,3H-pyrrolo[3,2-b]pyridin-1-yl}-2-oxoethyl)-5-methylpiperazin-2-yl]methyl}-1H,2H,3H-pyrrolo[3,4-c]pyridin-3-one, dihydrochloride] were 64%, 2.4 nM and under 1000 nM.
Take `C[C@@H]1CN(CC(=O)N2CC(C)(C)c3nnc(Cc4ccc(F)cc4)cc32)[C@@H](CN2Cc3ccccc3C2=O)CN1` [Example 61, 2-{[(2R,5R)-1-(2-{3-[(4-Fluorophenyl)methyl]-7,7-dimethyl-5H,6H,7H-pyrrolo[3,2-c]pyridazin-5-yl}-2-oxoethyl)-5-methylpiperazin-2-yl]methyl}-2,3-dihydro-1H-isoindol-1-one dihydrochloride]: the EC50 in experiment [2] (Homo sapiens; EVSA-T cell line, 72 hours, Alamar Blue; read-out: EVSA-T prolif) came to 1.5 nM.
